Assay results published in PubChem BioAssay (NCI).
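A five-concentration, 48-hour dose response in 96-well plates underlies each endpoint, interpolated linearly between surrounding concentrations. TGI is the concentration that stops growth completely.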

Legend:
Test in all cases: growth of human tumour cells (NCI), 48 h
SNB-19 CNS = test system: SNB-19 CNS
HT29 colon = test system: HT29 colon
UACC-62 melanoma = test system: UACC-62 melanoma
EKVX NSCLC = test system: EKVX NSCLC
SF-268 CNS = test system: SF-268 CNS
CAKI-1 renal = test system: CAKI-1 renal
HCT-15 colon = test system: HCT-15 colon
786-0 renal = test system: 786-0 renal
OVCAR-8 ovarian = test system: OVCAR-8 ovarian
SW-620 colon = test system: SW-620 colon
HOP-92 NSCLC = test system: HOP-92 NSCLC
KM20L2 colon = test system: KM20L2 colon
U251 CNS = test system: U251 CNS
HL-60(TB) leukemia = test system: HL-60(TB) leukemia
UO-31 renal = test system: UO-31 renal
NCI-H226 lung = test system: NCI-H226 lung
MALME-3M melanoma = test system: MALME-3M melanoma
RPMI-8226 leukemia = test system: RPMI-8226 leukemia
RXF 393 renal = test system: RXF 393 renal
SK-MEL-28 melanoma = test system: SK-MEL-28 melanoma
OVCAR-3 ovarian = test system: OVCAR-3 ovarian
TK-10 renal = test system: TK-10 renal
M19-MEL melanoma = test system: M19-MEL melanoma
KM12 colon = test system: KM12 colon
NCI-H23 lung = test system: NCI-H23 lung
A549 NSCLC = test system: A549 NSCLC
SK-MEL-2 melanoma = test system: SK-MEL-2 melanoma
SNB-75 CNS = test system: SNB-75 CNS
A498 renal = test system: A498 renal
ACHN renal = test system: ACHN renal
HOP-62 NSCLC = test system: HOP-62 NSCLC
COLO 205 colon = test system: COLO 205 colon
LOX IMVI melanoma = test system: LOX IMVI melanoma
IGROV1 ovarian = test system: IGROV1 ovarian
SK-OV-3 ovarian = test system: SK-OV-3 ovarian
SNB-78 CNS = test system: SNB-78 CNS
DLD-1 colon = test system: DLD-1 colon
SF-539 CNS = test system: SF-539 CNS
SF-295 CNS = test system: SF-295 CNS
LXFL 529 NSCLC = test system: LXFL 529 NSCLC
SN12C renal = test system: SN12C renal
M14 melanoma = test system: M14 melanoma
NCI-H460 lung = test system: NCI-H460 lung
SK-MEL-5 melanoma = test system: SK-MEL-5 melanoma
UACC-257 melanoma = test system: UACC-257 melanoma
HCC-2998 colon = test system: HCC-2998 colon
MOLT-4 leukemia = test system: MOLT-4 leukemia
CCRF-CEM leukemia = test system: CCRF-CEM leukemia
K-562 leukemia = test system: K-562 leukemia
HCT-116 colon = test system: HCT-116 colon
OVCAR-5 ovarian = test system: OVCAR-5 ovarian
OVCAR-4 ovarian = test system: OVCAR-4 ovarian
SR leukemia = test system: SR leukemia
DMS 273 small cell lung = test system: DMS 273 small cell lung
HOP-18 NSCLC = test system: HOP-18 NSCLC
DMS 114 small cell lung = test system: DMS 114 small cell lung
NCI-H522 lung = test system: NCI-H522 lung
DU-145 prostate = test system: DU-145 prostate
PC-3 prostate = test system: PC-3 prostate
BT-549 breast = test system: BT-549 breast
T-47D breast = test system: T-47D breast
MDA-N = test system: MDA-N
NCI/ADR-RES ovarian = test system: NCI/ADR-RES ovarian
MDA-MB-435 = test system: MDA-MB-435
HS 578T breast = test system: HS 578T breast
MDA-MB-231 breast = test system: MDA-MB-231 breast
MCF7 breast = test system: MCF7 breast

Measured: TGI

Cc1ccc(S(=O)(=O)NNC(=O)c2sc(-c3nc(C)c(C(=O)NNS(=O)(=O)c4ccc(C)cc4)s3)nc2C)cc1
99.7 µM: UO-31 renal
not listed: OVCAR-4 ovarian | SR leukemia | DMS 273 small cell lung | HOP-18 NSCLC | DMS 114 small cell lung | NCI-H522 lung | DU-145 prostate | PC-3 prostate | BT-549 breast | T-47D breast | MDA-N | NCI/ADR-RES ovarian | MDA-MB-435 | HS 578T breast | MDA-MB-231 breast | MCF7 breast
> 100 µM: all other assays above

COc1ccc(C2C(=O)C(Cl)N2Nc2nc(C)cc(=O)[nH]2)cc1OC (stereo unspecified)
70.2 µM: IGROV1 ovarian
94.2 µM: SN12C renal
53.7 µM: HOP-18 NSCLC
55.1 µM: CCRF-CEM leukemia
52.7 µM: SNB-75 CNS
84.8 µM: OVCAR-3 ovarian
84.3 µM: DMS 273 small cell lung
81.7 µM: HOP-92 NSCLC
37.6 µM: HL-60(TB) leukemia
55.9 µM: RPMI-8226 leukemia
85.5 µM: SF-539 CNS
not listed: CAKI-1 renal | 786-0 renal | NCI-H226 lung | MALME-3M melanoma | A498 renal | SK-OV-3 ovarian | DLD-1 colon | SF-295 CNS | DMS 114 small cell lung | NCI-H522 lung | DU-145 prostate | PC-3 prostate | BT-549 breast | T-47D breast | MDA-N | NCI/ADR-RES ovarian | MDA-MB-435 | HS 578T breast | MDA-MB-231 breast | MCF7 breast
> 100 µM: all other assays above

COP(=O)(OC)C(=NCc1ccccc1)NNc1ccc([N+](=O)[O-])cc1
52.9 µM: SK-MEL-2 melanoma
61.4 µM: NCI-H23 lung
74.8 µM: MOLT-4 leukemia
56.9 µM: SR leukemia
34.8 µM: SK-MEL-5 melanoma
57.1 µM: RPMI-8226 leukemia
69 µM: HCT-116 colon
55.1 µM: CCRF-CEM leukemia
76 µM: DMS 114 small cell lung
53.7 µM: M14 melanoma
79.3 µM: NCI-H460 lung
37.6 µM: SNB-75 CNS
67.4 µM: SF-295 CNS
54.4 µM: HOP-92 NSCLC
38.6 µM: NCI-H522 lung
72.1 µM: HOP-62 NSCLC
46 µM: HL-60(TB) leukemia
51.1 µM: UACC-257 melanoma
44.7 µM: SF-539 CNS
66.9 µM: U251 CNS
84.9 µM: SF-268 CNS
90.7 µM: OVCAR-4 ovarian
not listed: SNB-19 CNS | EKVX NSCLC | UO-31 renal | NCI-H226 lung | RXF 393 renal | A498 renal | LOX IMVI melanoma | SK-OV-3 ovarian | SNB-78 CNS | SN12C renal | HOP-18 NSCLC | DU-145 prostate | PC-3 prostate | BT-549 breast | T-47D breast | MDA-N | NCI/ADR-RES ovarian | MDA-MB-435 | HS 578T breast | MDA-MB-231 breast | MCF7 breast
> 100 µM: all other assays above

COc1ccc(N=Nc2ccc3oc(=O)c(C(=O)Nc4ccccc4)cc3c2)cc1
not listed: KM20L2 colon | M19-MEL melanoma | SNB-78 CNS | DLD-1 colon | LXFL 529 NSCLC | CCRF-CEM leukemia | K-562 leukemia | DMS 273 small cell lung | HOP-18 NSCLC | DMS 114 small cell lung
> 10 µM: all other assays above
